Test results reported in ChEMBL document CHEMBL1201862, “PubChem BioAssay data set” (2004).
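The compound was tested at five concentrations on cells cultured in 96-well plates, with a 48-hour exposure period. The concentration for 50% growth inhibition is given as GI50.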 Active and inactive are the calls of the source. No stated cut-off is given here; in the data, active = GI50 up to about 1.1 µM and inactive = higher.

How the values were obtained:
Assay in all cases: NCI-60 cell line screen, 48 h
SR = system: SR
COLO 205 = system: COLO 205
SNB-75 = system: SNB-75
KM12 = system: KM12
HT-29 = system: HT-29
SK-MEL-5 = system: SK-MEL-5
HCT-116 = system: HCT-116
A549 = system: A549
SW-620 = system: SW-620
UACC-257 = system: UACC-257
SF-539 = system: SF-539
SF-295 = system: SF-295
OVCAR-4 = system: OVCAR-4
HOP-92 = system: HOP-92
TK-10 = system: TK-10
OVCAR-5 = system: OVCAR-5
CCRF-CEM = system: CCRF-CEM
MOLT-4 = system: MOLT-4
ACHN = system: ACHN
NCI-H522 = system: NCI-H522

Measured: GI50

COC1(OC)CC(CO)(CNc2nc(N)nc(Cl)c2/C=N\O)C1
inactive: SR 13.4 µM | COLO 205 38.6 µM | SNB-75 48.8 µM | KM12 7.05 µM | HT-29 38.4 µM | SK-MEL-5 43.1 µM | HCT-116 50.4 µM | A549 59.7 µM | SW-620 > 100 µM | UACC-257 27.7 µM | SF-539 38.8 µM | SF-295 33.3 µM | OVCAR-4 29.5 µM | HOP-92 13.6 µM | TK-10 25.9 µM | OVCAR-5 20.7 µM | CCRF-CEM 47.1 µM | MOLT-4 15.3 µM | ACHN 24.6 µM | NCI-H522 6.67 µM

CC1CCC(C(C)C)C(OC(=O)NCn2cc(-c3ccccc3)nn2)C1 (centres undefined)
inactive: SR > 100 µM | COLO 205 > 100 µM | SNB-75 25.6 µM | KM12 > 100 µM | HT-29 > 100 µM | SK-MEL-5 > 100 µM | HCT-116 > 100 µM | A549 > 100 µM | SW-620 > 100 µM | UACC-257 > 100 µM | SF-539 48.3 µM | SF-295 > 100 µM | OVCAR-4 57.8 µM | HOP-92 > 100 µM | TK-10 75.5 µM | OVCAR-5 > 100 µM | CCRF-CEM > 100 µM | ACHN > 100 µM | NCI-H522 > 100 µM

CC[C@@]1(C)CCC2c3ccc(O)cc3CC[C@H]2C1C (some centres undefined)
inactive: SR 14.3 µM | COLO 205 17 µM | SNB-75 19.9 µM | KM12 15.8 µM | HT-29 18 µM | SK-MEL-5 16.9 µM | HCT-116 17.7 µM | A549 17.9 µM | SW-620 17 µM | UACC-257 15.7 µM | SF-539 19.9 µM | SF-295 18.8 µM | OVCAR-4 19.4 µM | HOP-92 6.85 µM | TK-10 19.1 µM | OVCAR-5 18.8 µM | CCRF-CEM 16.5 µM | MOLT-4 14.8 µM | ACHN 18.2 µM | NCI-H522 19.3 µM

CCCCCCCC/C=C\CCCCCCC(F)C(=O)O (centres undefined)
inactive: SR > 12.5 µM | COLO 205 > 12.5 µM | SNB-75 > 12.5 µM | KM12 > 12.5 µM | HT-29 > 12.5 µM | SK-MEL-5 > 12.5 µM | HCT-116 > 12.5 µM | A549 > 12.5 µM | SW-620 > 12.5 µM | UACC-257 > 12.5 µM | SF-539 > 12.5 µM | SF-295 > 12.5 µM | OVCAR-4 > 12.5 µM | HOP-92 > 12.5 µM | TK-10 > 12.5 µM | OVCAR-5 > 12.5 µM | CCRF-CEM > 12.5 µM | MOLT-4 > 12.5 µM | ACHN > 12.5 µM | NCI-H522 > 12.5 µM

O=C(Nc1nc(C23CC4CC(CC(C4)C2)C3)cs1)c1c(O)c2ccccc2[nH]c1=O
inactive: SR > 100 µM | COLO 205 > 100 µM | SNB-75 > 10 µM | KM12 > 100 µM | HT-29 > 100 µM | SK-MEL-5 > 100 µM | HCT-116 > 100 µM | A549 > 100 µM | SW-620 > 100 µM | UACC-257 > 100 µM | SF-539 > 100 µM | SF-295 > 100 µM | OVCAR-4 60.5 µM | HOP-92 > 100 µM | TK-10 > 100 µM | OVCAR-5 > 100 µM | CCRF-CEM > 100 µM | MOLT-4 > 100 µM | ACHN > 100 µM | NCI-H522 > 100 µM

CC(CC(=O)Nc1ccc(NC(=O)CC(C)/N=N\C(N)=O)cc1)/N=N\C(N)=O (centres undefined)
inactive: SR 22.8 µM | COLO 205 34.8 µM | SNB-75 > 100 µM | KM12 > 100 µM | HT-29 > 100 µM | SK-MEL-5 > 100 µM | HCT-116 > 100 µM | A549 > 100 µM | UACC-257 > 100 µM | SF-539 > 100 µM | SF-295 > 100 µM | OVCAR-4 > 100 µM | HOP-92 > 100 µM | TK-10 > 100 µM | OVCAR-5 > 100 µM | CCRF-CEM > 100 µM | MOLT-4 > 100 µM | ACHN > 100 µM | NCI-H522 > 100 µM

COc1ccc2c(O)c(S(=O)(=O)c3ccc(C)cc3)c(=O)oc2c1OC
inactive: SR > 100 µM | COLO 205 > 100 µM | SNB-75 > 100 µM | KM12 > 100 µM | HT-29 > 100 µM | SK-MEL-5 > 100 µM | HCT-116 > 100 µM | A549 > 100 µM | SW-620 > 100 µM | UACC-257 > 100 µM | SF-539 > 100 µM | SF-295 > 100 µM | OVCAR-4 > 100 µM | HOP-92 > 100 µM | TK-10 > 100 µM | OVCAR-5 > 100 µM | CCRF-CEM > 100 µM | MOLT-4 > 100 µM | ACHN > 100 µM | NCI-H522 > 100 µM

COC(=O)c1cccc(COc2ccc([N+](=O)[O-])cc2Cl)c1
inactive: SR > 100 µM | COLO 205 > 100 µM | SNB-75 > 100 µM | KM12 > 100 µM | HT-29 > 100 µM | SK-MEL-5 51.1 µM | HCT-116 > 100 µM | A549 42.5 µM | SW-620 > 100 µM | UACC-257 > 100 µM | SF-539 > 100 µM | SF-295 > 100 µM | OVCAR-4 58.3 µM | HOP-92 44.5 µM | TK-10 > 100 µM | OVCAR-5 > 100 µM | CCRF-CEM 63.4 µM | MOLT-4 > 100 µM | ACHN 53.3 µM | NCI-H522 63.7 µM

NC(=O)CN1CC(C2=C(O)CN(CC(N)=O)C2=O)=CC1=O
inactive: SR > 100 µM | COLO 205 > 100 µM | SNB-75 > 100 µM | KM12 > 100 µM | HT-29 > 100 µM | SK-MEL-5 > 100 µM | HCT-116 > 100 µM | A549 > 100 µM | SW-620 > 100 µM | UACC-257 > 100 µM | SF-539 > 100 µM | SF-295 > 100 µM | OVCAR-4 > 100 µM | HOP-92 > 100 µM | TK-10 > 100 µM | OVCAR-5 > 100 µM | CCRF-CEM > 100 µM | MOLT-4 > 100 µM | ACHN > 100 µM | NCI-H522 > 100 µM

CCN1CC2(COC)C(O)CC(OC)C34C5CC6(O)C(OC)C=C(C5C6OC(=O)c5ccc(OC)c(OC)c5)C(C(OC)C23)C14 (centres undefined)
inactive: SR > 7.5 µM | COLO 205 > 7.5 µM | SNB-75 4.51 µM | KM12 > 7.5 µM | HT-29 > 7.5 µM | SK-MEL-5 > 7.5 µM | HCT-116 > 7.5 µM | A549 > 7.5 µM | SW-620 > 7.5 µM | UACC-257 > 7.5 µM | SF-539 > 7.5 µM | SF-295 > 7.5 µM | OVCAR-4 > 7.5 µM | HOP-92 > 7.5 µM | TK-10 > 7.5 µM | OVCAR-5 > 7.5 µM | CCRF-CEM > 7.5 µM | ACHN > 7.5 µM | NCI-H522 > 7.5 µM

CC(C)CC1C(=O)NCCC(NC(=O)C(N)Cc2ccc(O)cc2)C(=O)NC(Cc2ccccc2)C(=O)NC(Cc2ccccc2)NC1=O (centres undefined)
inactive: SR > 100 µM | COLO 205 > 100 µM | SNB-75 > 100 µM | KM12 > 100 µM | HT-29 > 100 µM | SK-MEL-5 17.9 µM | HCT-116 > 100 µM | A549 > 100 µM | SW-620 > 100 µM | UACC-257 > 100 µM | SF-539 > 100 µM | SF-295 > 100 µM | OVCAR-4 > 100 µM | HOP-92 72.9 µM | TK-10 > 100 µM | OVCAR-5 > 100 µM | CCRF-CEM > 100 µM | MOLT-4 > 100 µM | ACHN > 100 µM | NCI-H522 > 100 µM

O=S(=O)(O)c1cc(/N=N/c2cc(S(=O)(=O)O)c3ccccc3c2O)ccc1/C=C/c1ccc(/N=N/c2cc(S(=O)(=O)O)c3ccccc3c2O)cc1S(=O)(=O)O
inactive: SR 27 µM | SNB-75 > 458 µM | HT-29 > 457 µM | SK-MEL-5 86.7 µM | HCT-116 > 213 µM | A549 > 480 µM | SW-620 > 605 µM | UACC-257 > 291 µM | SF-539 > 386 µM | SF-295 > 462 µM | OVCAR-4 > 86.5 µM | HOP-92 > 80.9 µM | TK-10 24.9 µM | OVCAR-5 146 µM | CCRF-CEM 20.6 µM | MOLT-4 22.8 µM | ACHN > 483 µM | NCI-H522 > 492 µM

OCc1ccccc1O[C@H]1O[C@H](CO)[C@@H](O)[C@H](O)[C@H]1O
inactive: SR > 10 µM | COLO 205 > 100 µM | SNB-75 > 100 µM | KM12 > 100 µM | HT-29 > 100 µM | SK-MEL-5 > 100 µM | HCT-116 > 100 µM | A549 > 100 µM | SW-620 > 100 µM | UACC-257 > 100 µM | SF-539 > 100 µM | SF-295 > 100 µM | OVCAR-4 > 100 µM | HOP-92 > 100 µM | TK-10 > 100 µM | OVCAR-5 > 100 µM | CCRF-CEM > 100 µM | MOLT-4 > 100 µM | ACHN > 100 µM | NCI-H522 > 100 µM

CS(=O)(=O)c1ccc(C2=C(c3ccccc3)C(=O)OC2)cc1 [ROFECOXIB]
inactive: SR > 100 µM | COLO 205 > 100 µM | SNB-75 > 100 µM | KM12 > 100 µM | SK-MEL-5 > 100 µM | HCT-116 > 100 µM | A549 > 100 µM | SW-620 > 100 µM | UACC-257 > 100 µM | SF-539 > 100 µM | SF-295 > 100 µM | OVCAR-4 > 100 µM | HOP-92 > 100 µM | TK-10 > 100 µM | OVCAR-5 > 100 µM | CCRF-CEM > 100 µM | MOLT-4 > 100 µM | ACHN > 100 µM | NCI-H522 > 100 µM
